Molecular target: Cathepsin D (Homo sapiens, UniProt P07339)
Test: Inhibitory activity of compound against human Cathepsin D

Sequence of Cathepsin D (P07339 65-162 limits assumed): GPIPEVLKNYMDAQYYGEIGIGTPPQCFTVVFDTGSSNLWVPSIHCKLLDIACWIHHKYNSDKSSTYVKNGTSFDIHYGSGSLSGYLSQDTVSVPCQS
Sequence of Cathepsin D (P07339 169-412 limits assumed): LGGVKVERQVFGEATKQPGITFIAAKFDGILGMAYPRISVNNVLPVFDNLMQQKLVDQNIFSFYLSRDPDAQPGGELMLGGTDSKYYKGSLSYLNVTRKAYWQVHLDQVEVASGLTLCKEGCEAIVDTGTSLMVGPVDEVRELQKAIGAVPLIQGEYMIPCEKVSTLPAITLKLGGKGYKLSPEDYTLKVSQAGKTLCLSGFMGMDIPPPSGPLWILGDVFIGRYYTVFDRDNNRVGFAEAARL

First: O=C(/C=C/c1c(Cl)cccc1Cl)N[C@@H](Cc1ccccc1)[C@@H](O)CN(CCc1ccccn1)C(=O)COc1c(Cl)cc(Cl)cc1Cl
Second: O=C(/C=C/c1c(Cl)cccc1Cl)N[C@@H](Cc1ccccc1)[C@@H](O)CN(CCc1cccs1)C(=O)CCc1ccc(Cl)c(Cl)c1
The Ki of the first is higher: over 100000 nM for the first, about 10000 nM for the second. The second binds more tightly here.

First: O=C(COc1c(Cl)cc(Cl)cc1Cl)N[C@@H](Cc1ccccc1)[C@@H](O)CN(CCc1ccc2c(c1)OCO2)C(=O)CCN1C(=O)c2ccccc2C1=O
Second: O=C(COc1cc(Cl)c(Cl)cc1Cl)N[C@@H](Cc1ccccc1)[C@H](O)CN(CCc1ccc2c(c1)OCO2)C(=O)CCN1C(=O)c2ccccc2C1=O
The Ki of the first is lower: 73 nM for the first, over 5000 nM for the second. The first binds more tightly here.

Going from `O=C(COc1ccc(Cl)cc1Cl)N[C@@H](Cc1ccccc1)[C@@H](O)CN(CCc1ccc2c(c1)OCO2)C(=O)CCN1C(=O)c2ccccc2C1=O` to `COc1cc(Br)c(C(=O)N[C@@H](Cc2ccccc2)[C@@H](O)CN(CCc2ccc(Cl)cc2Cl)C(=O)CCN2C(=O)c3ccccc3C2=O)cc1OC`, the Ki rises from 3 nM to 5.2 nM (1.7-fold). The first binds more tightly here.

— ChEMBL document CHEMBL1135901, “Molecular dynamics and free energy analyses of cathepsin D-inhibitor interactions: insight into structure-based ligand design” (J Med Chem, 2002)
